One may read the solubility as how much of the substance goes into solution per volume.

Data on 1 compound can be found in patent US20090011007A1, “Pharmaceutical Compositions Containing Mixtures of Polymers and Active Agents Poorly Soluble in Water” (Evonik Roehm GmbH, priority 2006, published 2009).

Each structure is given as a SMILES string. Converted amounts (≈) assume the structure as drawn.

Data set [1] is described as follows: Determination of the solubility of felodipine at pH 1.2 (orbital shaker, 24 hours, SGFsp, HPLC). The class given is physicochemical. The note with it: SGFsp medium buffered to pH 1.2, simulated gastric fluid, thermodynamic from solid, SGFsp pH 1.2, 37° C., 10 mg in 20 ml, read-out: solubility of felodipine alone at pH 1.2. Here is the method:
Felodipine has a solubility in water of <1 mg/l […]. The solubility for felodipine was determined for comparison in a medium buffered to pH 1.2 (SGFsp pH 1.2). For this purpose, 10 mg were kept in motion at 37° C. on an orbital shaker in 20 ml of medium for 24 hours. The concentration was determined by means of HPLC. For felodipine alone, without inventive formulation, a solubility of 0.5 mg/l was determined.

The conditions of data set [2]: cited from earlier work.

For `CCOC(=O)C1=C(C)NC(C)=C(C(=O)OC)C1c1cccc(Cl)c1Cl` (centres unmarked) [felodipine alone, felodipine], the solubility at 24 h in data set [1] was 0.5 µg/mL (≈ 1.3 µM). In addition, in data set [2], the solubility in water was less than 1 µg/mL.
